Values quoted from earlier work as cited in patent US5266487A, “Apparatus for the treatment of lignocellulosic materials” (Knobbe, Martens, Olson & Bear, priority 1992, dated 1993).
Where two headings read alike, the source gives them in different places.

Molecular target: alcohol oxidase (methanol oxidase), preferred enzyme from Hansenula polymorpha ATCC 34438 (Pichia angusta, UniProt P04841)
Sequence (P04841 whole entry): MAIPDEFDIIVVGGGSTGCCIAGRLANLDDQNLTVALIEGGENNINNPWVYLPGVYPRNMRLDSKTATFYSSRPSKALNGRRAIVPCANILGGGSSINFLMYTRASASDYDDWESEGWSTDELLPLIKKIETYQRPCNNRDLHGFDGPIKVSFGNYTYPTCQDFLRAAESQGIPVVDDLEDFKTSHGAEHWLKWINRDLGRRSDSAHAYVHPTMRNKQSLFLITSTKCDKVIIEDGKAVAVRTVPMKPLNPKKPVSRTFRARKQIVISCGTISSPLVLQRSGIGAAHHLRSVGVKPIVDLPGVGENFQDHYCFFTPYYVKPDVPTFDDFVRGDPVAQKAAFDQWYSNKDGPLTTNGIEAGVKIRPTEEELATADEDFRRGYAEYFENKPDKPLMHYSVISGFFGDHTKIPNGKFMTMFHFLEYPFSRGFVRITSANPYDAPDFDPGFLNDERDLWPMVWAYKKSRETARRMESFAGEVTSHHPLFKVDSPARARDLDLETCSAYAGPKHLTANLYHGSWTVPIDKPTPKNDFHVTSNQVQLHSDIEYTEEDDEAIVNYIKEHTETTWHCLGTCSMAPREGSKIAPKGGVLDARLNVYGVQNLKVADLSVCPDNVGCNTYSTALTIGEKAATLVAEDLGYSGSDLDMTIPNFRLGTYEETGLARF

CO [methanol]
Km (read-out: Km methanol, see Van Dijken et al., Arch. Microbiol. 111, 137 (1976)): 2000 µM

O=O [oxygen]
Km (read-out: Km oxygen, see Van Dijken et al., Arch. Microbiol. 111, 137 (1976)): 400 µM
